Reference: patent publication US20220162552A1, “Nonviral Modification of T Cell Gene Expression” (Precision NanoSystems Inc., priority 2019, published 2022)

Tests used:
Assay type in all cases: cell-based
[1] = tested on: primary human T cells; assay: EPO mRNA LNP delivery to T cells, Human Epo ELISA; conditions: CT10 LNPs, 48 h
Protocol: Reagents were acquired from Quantikine, Minneapolis, Minn. The assay was performed as directed on the Quantikine® IVD® ELISA Human Erythropoietin Immunoassay protocol REF DEP00 Package Insert. Briefly; primary human T cells were isolated from fresh whole blood using a negative selection protocol and activated using a triple activator. At 7 days post-activation, the cells were treated with mRNA LNPs encoding EPO at 2 μg mRNA per 500,000 cells and N/P 10. After 48 hours of treatment with mRNA LNPs, the T cells were harvested and lysed for cytosolic EPO and media supernatant was sampled for secreted EPO. Quantikine® Human Serum Controls were used.
Frozen human T cells, previously isolated from fresh human whole blood using a negative selection protocol, were thawed and activated using a triple activator as previously described. At seven days post-activation, T cells were dosed with CT10 formulated mRNA LNPs encoding recombinant human erythropoietin (EPO) determined by ELISA (R&D Systems) at 2 μg mRNA per 500,000 cells and N/P 10. After 48 hours of treatment with mRNA LNPs the T cells were harvested and lysed for cytosolic EPO and media supernatant was sampled for secreted EPO.

[2] = tested on: primary human T cells (live CD4+/CD8+ T cells); assay: eGFP mRNA LNP transfection of activated T cells on day 7, 2 μg mRNA per 500,000 cells, flow cytometry after 48 h; conditions: for MFI results by ionizable lipid: MC3 versus BOCHD-C3-DMA; for activity of the lipid mix composition to transfect T cells by ionizable lipid (FIG. 10 upper): same ratios and materials, ionizable lipid varied
Protocol: All reagents from StemCell Technologies unless otherwise stated. T cells were isolated from whole human peripheral blood using a negative selection isolation procedure (EasySep™ Human T Cell Isolation Kit). T cell activation and expansion was carried out using Immunocult™ Human CD3/CD28/CD2 Activator in ImmunoCult™ Human T Cell Expansion Media supplemented with recombinant human IL-2 (Peprotech Inc., Rocky Hill USA). T cells typically enter a logarithmic phase of growth 48-96 hours after activation, which phase is characterized by a period of rapid proliferation and metabolic activity for 24-72 hours followed by a plateau in the growth curve as the cells start to return to a quiescent state. As depicted in FIG. 1, T cells may be exposed to lipid nucleic acid before or during the log phase of growth (day 3), or after the log phase of growth (day 7).
We tested the compositions of new Lipid Mixes against standard Lipid Mix A (all with BOCHD-C3-DMA as IL unless otherwise stated) using the triple T cell activation protocol (Pan T cells were activated with trio activator comprising anti-CD3/CD28/CD2 antibody) in LNP-mediated mRNA delivery and expression in vitro.
LNP formulated EGFP mRNA (Trilink Biotechnologies, San Diego, Calif.) was added to 500,000 T cells in 1 mL of complete T cell media, with 1 μg/mL of Recombinant Human ApoE4 (“ApoE”) (Peprotech Inc.).
The volume of LNAP required to achieve the desired dose of mRNA was calculated based on the concentration of encapsulated mRNA as determined by modified Ribogreen™ assay. T cells were counted through Trypan blue (Sigma) exclusion and diluted to 500,000 cells/mL. Briefly, in a 12 well plate, 1 mL was aliquoted into each well. ApoE was added to a final concentration of 1 ug/mL in each well. Based upon the calculation in step 1, the required amount of mRNA LNP was added, in this case 2 μg, and the plate incubated for 48 hours.
Different lipid mix compositions were tested for their ability to induce transfection as measured by geometric mean fluorescence intensity of GFP expressed in T cells (as measured by flow cytometry).
Three isolations of T cells were taken from a single donor and divided into three groups: Pan T cells (all T cells), CD4+ T cells alone, and CD8+ T cells alone. At 48H following lipid particle mRNA exposure, the treated T cells were harvested by transferring the cell suspensions to pre-labeled 1.5 mL tubes and centrifuged 300×g at 4 degrees Celsius for 10 minutes. Supernatant was removed and the pellet resuspended in PBS. An amount of 0.5 ul of BD Horizon™ Fixable Viability Stain 575V™ (BD Biosciences) was added, and the mixture incubated in the dark for 10 minutes at RT. The cells were centrifuged again as before, then washed twice with 1 mL of Stain buffer (BSA, BD Pharminigen), and the washed pellet placed in 100 μl BSA. The following antibodies were added to each tube of treated cells in 2 μl volumes: anit-CD25, anti-CD8, anti-CD4, (PerCP-Cy 5.5 Mouse Anti Human CD25, BV786 Mouse Anti-Human CD8 Clone RPA-T8, and APC-Cy™ 7 Mouse Anti-Human CD4 Clone SK3, all from BD Pharmingen). For compensation purposes, in the GFP only sample and viability control, no antibody was added, while in the single stain compensation tubes, only one antibody was added.
The tubes were incubated at 4 degrees C. for 30 min, whereupon […] of stain buffer (BSA) was added, and the cells were centrifuged again. Cells were washed once with 1 mL of stain buffer and spun down again as in step 1. Cell pellets were resuspended in 1 mL of stain buffer and added to pre-labeled flow tubes with cell strainer caps (Corning Falcon).
Histogram Analysis of T Cell Populations was generated as follows: Flow cytometry was performed on the live primary human T cells. […] All LNP compositions contained BOCHD-C3-DMA as ionizable lipid (IL). […]

[3] = tested on: isolated primary human T cells; assay: eGFP mRNA LNP transfection of T cells, 125,000 cells per well format (day 3/4/7), flow cytometry; conditions: CT10 composition, six donors, day 7
Protocol: Isolation of primary T cells from human whole blood and activation/expansion was performed as in general procedures above. Isolated T cells were exposed to the formulated mRNA three days after activation; in the T cell growth curve, this time point corresponds to just before or at the log phase of growth. A dose of 125 ng of CleanCap™ EGFP (Trilink Biotechnologies, San Diego, Calif.) mRNA encapsulated in LNP (see details below) was added to about 125,000 T cells in 0.25 mL of complete T cell media, with 1 ug/mL of Recombinant Human ApoE4 (“ApoE”) (Peprotech Inc., Montreal, Canada).
The volume of LNP required for T cell treatment was calculated based upon Ribogreen™ assay results. T cells were counted through Trypan blue (Sigma) exclusion and diluted to 500,000 cells/mL. […]
Lipid mix compositions were tested for their ability to induce transfection, using flow cytometry to measure the geometric mean fluorescence intensity of eGFP. Shown in FIG. 11 A(i) to D(ii) are the transfection efficiencies (i) and mean fluorescence intensities (ii) of mRNA LNPs encoding eGFP in isolated primary human T cells under various conditions. […]
GFP expression in isolated primary human T cells mediated by mRNA-LNPs containing BOCHD-C3-DMA with CT10 composition at N/P 8 is shown in FIG. 16. Transfection efficiency, viability and GFP MFI measured by flow cytometry 48 hours after LNP addition. […]

| SMILES | level of secreted EPO by ionizable lipid [1] | MFI results by ionizable lipid [2] | activity of the lipid mix composition to transfect T cells by ionizable lipid (FIG. 10 upper) [2] | donor to donor variability by ionizable lipid (FIG. 15) [3] | T cell transfection by structural lipid (FIG. 8) ([2]; Lipid Mix CT22 ratios, structural lipid DOPE or DSPC, N/P 10) |
| --- | --- | --- | --- | --- | --- |
| CCCCCCCCC1CC1CCCCCCCCC(CCCCCCCCC1CC1CCCCCCCC)OC(=O)CCCN(C)C.Cl (stereo not drawn) [BOCHD-C3-DMA, 1,17-bis(2-octylcyclopropyl)heptadecan-9-yl 4-(dimethylamino) butanoate hydrochloride] | higher level of secreted EPO than MC3 LNPs | comparable | without affecting the activity of the lipid mix composition to transfect T cells | no substantial difference |  |
| CCCCCCCCCCCCCCCCCC(=O)OC[C@H](COP(=O)([O-])OCC[N+](C)(C)C)OC(=O)CCCCCCCCCCCCCCCCC [DSPC, distearoylphosphatidylcholine] |  |  |  |  | better than DOPE |
| CCCCC/C=C\C/C=C\CCCCCCCCC1(CCCCCCCC/C=C\C/C=C\CCCCC)OCC(CCN(C)C)O1 (stereo not drawn) [KC2, 2,2-dilinoleyl-4-(2-dimethylaminoethyl)-[1,3]-dioxolane, reference compound] |  |  | without affecting the activity of the lipid mix composition to transfect T cells |  |  |
| CCCCCC=CCC=CCCCCCCCCC(CCCCCCCCC=CCC=CCCCCC)OC(=O)CCCN(C)C (stereo not drawn) [MC3, heptatriaconta-6,9,28,31-tetraen-19-yl 4-(dimethylamino)butanoate, reference compound] |  | comparable | without affecting the activity of the lipid mix composition to transfect T cells | no substantial difference |  |
